*1 amine or outer side, *2 acyl side, *3 side chain or, on linkers, in order; H or OH if unused. Where a SMILES comes first, the peptide text is derived from it. [ ]: non-standard residue; d: D form. Cha = N[C@@H](CC1CCCCC1)C(=O)O; Suc = O=C(CCC(=O)[*:2])[*:1]

This experiment has as its system Fibrin-Clot. The experiment in a line: Fibrin-Clot Inhibition. The format is biochemical.
The compound `CC(C)C[C@H](NC(=O)[C@H](CO)NC(=O)[C@H](Cc1ccccc1)NC(=O)[C@H](CCC(=O)O)NC(=O)[C@H](CCC(=O)O)NC(=O)[C@H](Cc1ccccc1)NC(=O)CCC(=O)O)C(=O)N[C@@H](CC(=O)O)C(=O)N[C@@H](CC(=O)O)C(=O)N[C@@H](CC1CCCCC1)C(=O)N[C@@H](CCC(=O)O)C(=O)N[C@@H](CCC(N)=O)C(=O)O` [Example 7, Suc-Phe-Glu-Glu-Phe-Ser-Leu-Asp-Asp-Cha-Glu-Gln-OH] (Suc-FEEFSLDD[Cha]EQ-OH) showed a concentration for half-maximal inhibition (IC50) of 7100 nM.
`CC[C@H](C)[C@H](NC(=O)[C@H](CC(=O)O)NC(=O)[C@H](CC(=O)O)NC(=O)[C@H](CC(C)C)NC(=O)[C@H](CO)NC(=O)[C@H](Cc1ccccc1)NC(=O)[C@@H]1CCCN1C(=O)[C@H](CCC(=O)O)NC(=O)[C@H](Cc1ccccc1)NC(=O)CCC(=O)O)C(=O)N[C@@H](CCC(=O)O)C(=O)N[C@@H](CCC(N)=O)C(=O)O` [Example 5, Suc-Phe-Glu-Pro-Phe-Ser-Leu-Asp-Asp-Ile-Glu-Gln-OH] (Suc-FEPFSLDDIEQ-OH) gave an IC50 of 1800 nM.
As for `CC[C@H](C)[C@H](NC(=O)[C@H](CC(=O)O)NC(=O)[C@H](CC(=O)O)NC(=O)[C@H](CC(C)C)NC(=O)[C@H](CO)NC(=O)[C@H](Cc1ccccc1)NC(=O)[C@H](CCC(=O)O)NC(=O)[C@H](CCC(=O)O)NC(=O)[C@H](Cc1ccccc1)NC(=O)CCC(=O)O)C(=O)N[C@@H](CCC(=O)O)C(=O)N[C@@H](CCC(N)=O)C(=O)O` [Example 4, Suc-Phe-Glu-Glu-Phe-Ser-Leu-Asp-Asp-Ile-Glu-Gln-OH] (Suc-FEEFSLDDIEQ-OH), the midpoint of inhibition, the IC50, lay at 2700 nM. This IC50 is about 1.5-fold higher than that of the compound before.
The result for `CC[C@H](C)[C@H](NC(=O)[C@H](CC(=O)O)NC(=O)[C@H](CC(=O)O)NC(=O)[C@H](CC(C)C)NC(=O)[C@@H]1CCCN1C(=O)[C@@H](Cc1ccccc1)NC(=O)[C@H](CCC(=O)O)NC(=O)[C@H](CCC(=O)O)NC(=O)[C@H](Cc1ccccc1)NC(=O)CCC(=O)O)C(=O)N[C@@H](CCC(=O)O)C(=O)N[C@@H](CCC(N)=O)C(=O)O` [Example 6, Suc-Phe-Glu-Glu-phe-Pro-Leu-Asp-Asp-Ile-Glu-Gln-OH] (Suc-FEE[dF]PLDDIEQ-OH) reads 2300 nM.

The values above are taken from patent publication US5495000A, “Anticoagulant peptides” (Merrell Pharmaceuticals Inc., priority 1995, dated 1996).
